Measurements as given in ChEMBL document CHEMBL1136573, “Condensed aromatic peptide family of microbial metabolites, inhibitors of CD28-CD80 interactions” (Bioorg Med Chem Lett, 2003).

What was measured:
[1] = Inhibition of CD28-CD80 interaction in the absence of fetal bovine serum (FBS)
[2] = target: T-cell surface glycoprotein CD4 (Homo sapiens, UniProt P01730); experiment: Inhibitory concentration against CD4-gp120 binding in the absence of fetal bovine serum (FBS); Range is 0.13-0.5 uM
[3] = Inhibition of CD28-CD80 interaction in the presence of fetal bovine serum (FBS)

| IC50 [1] | IC50 [2] | IC50 [3] | SMILES |
| --- | --- | --- | --- |
| 8 nM | 130 nM | 220 nM | CC(=O)CC(O)(C(=O)N[C@@H]1Cc2c[nH]c3cc(ccc23)-c2cc3cc(c2O)Oc2ccc(cc2)C[C@@H](C(=O)N[C@@H](C(=O)O)c2ccc(O)cc2)N(C)C(=O)[C@@H](c2cc(Cl)c(O)c(Cl)c2)NC(=O)[C@@H]3NC(=O)[C@@H](c2cc(Cl)c(O)c(Cl)c2)NC1=O)c1cc(Cl)c(O)c(Cl)c1 (some centres undefined) |
| 10 nM | 130 nM | 380 nM | CN1C(=O)[C@@H](c2cc(Cl)c(O)c(Cl)c2)NC(=O)[C@@H]2NC(=O)[C@@H](c3cc(Cl)c(O)c(Cl)c3)NC(=O)[C@H](NC(=O)C(=O)c3cc(Cl)c(O)c(Cl)c3)Cc3c[nH]c4c(cccc34)-c3cc2cc(c3O)Oc2ccc(cc2)C[C@H]1C(=O)N[C@@H](C(=O)O)c1ccc(O)cc1 [CHLOROPEPTIN] |
| 10 nM | 130 nM | 420 nM | CN1C(=O)[C@@H](c2cc(Cl)c(O)c(Cl)c2)NC(=O)[C@@H]2NC(=O)[C@@H](c3cc(Cl)c(O)c(Cl)c3)NC(=O)[C@H](NC(=O)C(=O)c3cc(Cl)c(O)c(Cl)c3)Cc3c[nH]c4cc(ccc34)-c3cc2cc(c3O)Oc2ccc(cc2)C[C@H]1C(=O)N[C@@H](C(=O)O)c1ccc(O)cc1 [ISOCOMPLESTATIN] |
